The record followed here is patent US20160081917A1, “STEM CELL COMPOSITION FOR VENOUS ADMINISTRATION” (K-STEMCELL CO., LTD, priority 2013, published 2016).

Common to all, as to assay type: cell-based, human
For series [1], the system named is adipose mesenchymal stem cells. The experiment in a line: Viability of stem cells suspended in physiological saline containing acetylsalicylic acid. Here is the method: The adipose mesenchymal stem cells isolated in Example 1 were treated with trypsin, and then suspended at a concentration of 1.0×10^7 cells in physiological saline containing varying concentrations of acetylsalicylic acid (Sigma; A5376), after which the viability of the cells at 12 hours and 24 hours after the suspension was observed. The physiological saline containing acetylsalicylic acid was prepared by adding acetylsalicylic acid to physiological saline at varying concentrations and sonicating it at 37° C. for 30 minutes.

The subject of series [2] is adipose mesenchymal stem cells. The experiment in a line: FACS analysis of surface marker expression after suspension in saline containing aspirin lysine and cold storage. On the procedure:
(§1) The adipose mesenchymal stem cells isolated in Example 1 were treated with trypsin, and then suspended at a concentration of 1.0×10^7 cells in physiological saline containing varying concentrations of aspirin lysine (Shin Poong Pharm. Co., Ltd, Korea). Then, the cells were incubated for 5 days, and the cell count of the cells was measured. In addition, the cells were cold-stored for 24 hours, and then the characteristics of the cells were analyzed by FACS.

Series [3] has as its system adipose mesenchymal stem cells. The experiment in a line: Viability and cell count after 5 days of incubation following suspension in saline containing aspirin lysine. Conditions: varying concentrations in physiological saline. On the procedure: as §1
The mark [4] stands for this setting: 0.1 mg/10 ml, cold-stored for 24 hours, FACS.

With `CC(=O)Oc1ccccc1C(=O)O` [acetylsalicylic acid], the cytotoxicity result in series [1] (1.0 mg or more added to 10 ml of physiological saline) is given as “cytotoxic”. The Viability in series [1] (1.0 mg/10 ml in physiological saline, 12 hours after suspension) was 50%; in series [1] (1.0 mg/10 ml in physiological saline, 24 hours after suspension), 10%; in series [1] (2.0 mg/10 ml in physiological saline, 12 hours after suspension), 20%; in series [1] (2.0 mg/10 ml in physiological saline, 24 hours after suspension) it was 10%; in series [1] (5.0 mg/10 ml in physiological saline, 12 hours after suspension), 10%; in series [1] (5.0 mg/10 ml in physiological saline, 24 hours after suspension) it was 5%.
For the molecule `CC(=O)Oc1ccccc1C(=O)O` [aspirin lysine], in series [2] (setting [4]), the “Expression rate CD29” value is 99.97%, the “Expression rate CD31” value came to 0.21%, the “Expression rate CD44” value came to 99.25% and the “Expression rate CD45” value is 0.17%. Further, in series [2] (setting [4]), the “Expression rate CD90” value is 99.66% and the “Expression rate CD105” value was 99.89%. Also, in series [2] (suspended 24 hours in aspirin-containing saline, then cold-stored 24 hours), the “characteristics of the adipose mesenchymal stem cells (FACS)” value is reported as “not dependent on the concentration of aspirin lysine”. Also, in series [3], the “cell viability depending on concentration” value was “somewhat decreased depending on the concentration of aspirin lysine, but this decrease was not significant” and the “count of the cells after 5 days of incubation” value is “did not almost differ between the concentrations of aspirin lysine”.
